Laboratory results taken from ChEMBL document CHEMBL1201862, “PubChem BioAssay data set” (2004).
The source made the active and inactive calls.

Legend:
[1] = target: Adenosylmethionine-8-amino-7-oxononanoate aminotransferase (Mycobacterium tuberculosis, UniProt P9WQ81); experiment: Mycobacterium tuberculosis BioA enzyme inhibitor Measured in Biochemical System Using Plate Reader - 2163-02_Inhibitor_Dose_CherryPick_Activity.; format: functional, Mycobacterium tuberculosis UT205
[2] = Fluorescence-based cell-based high throughput dose response assay for inhibitors of the interaction of nucleotide-binding oligomerization domain containing 2 (NOD2) and the receptor-interacting serine-threonine kinase 2 (RIPK2).; format: functional; conditions: Homo sapiens
[3] = target: SWI/SNF-related matrix-associated actin-dependent regulator of chromatin subfamily A member 2 (Homo sapiens, UniProt P51531); experiment: Luminescence-based cell-based high throughput dose response assay to identify activators of the function of SWI/SNF related, matrix associated, actin dependent regulator of chromatin, subfamily a, member 2 (SMARCA2, BRM).; format: functional
[4] = Counterscreen for activators of the function of SWI/SNF related, matrix associated, actin dependent regulator of chromatin, subfamily a, member 2 (SMARCA2, BRM): Luminescence-based cell-based high throughput dose response assay to identify non-selective compounds using the VP16 reporter assay.; format: functional
Beta Lactamase = Beta Lactamase (Pseudomonas aeruginosa, UniProt Q932Y6); experiment: BLA reporter interference, concentration series – BLA reporter cells, FRET fluorescence, artefact control for NOD2-RIPK2 interaction inhibitor project, dose response (AID 651552); format: functional, cell-based
Beta Lactamase, sequence (Q932Y6 whole entry): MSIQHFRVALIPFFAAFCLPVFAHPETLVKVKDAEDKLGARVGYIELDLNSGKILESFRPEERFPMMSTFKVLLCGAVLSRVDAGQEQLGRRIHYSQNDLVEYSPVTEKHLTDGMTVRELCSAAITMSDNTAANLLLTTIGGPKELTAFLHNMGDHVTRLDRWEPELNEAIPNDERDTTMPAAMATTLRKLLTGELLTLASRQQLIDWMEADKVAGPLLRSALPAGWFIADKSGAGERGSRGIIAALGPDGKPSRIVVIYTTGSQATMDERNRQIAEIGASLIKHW

Fatty acid synthase [5] = target: T1, Fatty acid synthase (Homo sapiens, UniProt P49327); experiment: inhibition of human FAS-TE enzyme activity – biochemical, endpoint fluorescence intensity, uHTS hits, dose response (AID 624327); format: functional;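 further: fluorescence from hydrolysis of an O-methyl fluorescein acyl ester substrate by the enzyme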
T1 sequence (P49327 whole entry): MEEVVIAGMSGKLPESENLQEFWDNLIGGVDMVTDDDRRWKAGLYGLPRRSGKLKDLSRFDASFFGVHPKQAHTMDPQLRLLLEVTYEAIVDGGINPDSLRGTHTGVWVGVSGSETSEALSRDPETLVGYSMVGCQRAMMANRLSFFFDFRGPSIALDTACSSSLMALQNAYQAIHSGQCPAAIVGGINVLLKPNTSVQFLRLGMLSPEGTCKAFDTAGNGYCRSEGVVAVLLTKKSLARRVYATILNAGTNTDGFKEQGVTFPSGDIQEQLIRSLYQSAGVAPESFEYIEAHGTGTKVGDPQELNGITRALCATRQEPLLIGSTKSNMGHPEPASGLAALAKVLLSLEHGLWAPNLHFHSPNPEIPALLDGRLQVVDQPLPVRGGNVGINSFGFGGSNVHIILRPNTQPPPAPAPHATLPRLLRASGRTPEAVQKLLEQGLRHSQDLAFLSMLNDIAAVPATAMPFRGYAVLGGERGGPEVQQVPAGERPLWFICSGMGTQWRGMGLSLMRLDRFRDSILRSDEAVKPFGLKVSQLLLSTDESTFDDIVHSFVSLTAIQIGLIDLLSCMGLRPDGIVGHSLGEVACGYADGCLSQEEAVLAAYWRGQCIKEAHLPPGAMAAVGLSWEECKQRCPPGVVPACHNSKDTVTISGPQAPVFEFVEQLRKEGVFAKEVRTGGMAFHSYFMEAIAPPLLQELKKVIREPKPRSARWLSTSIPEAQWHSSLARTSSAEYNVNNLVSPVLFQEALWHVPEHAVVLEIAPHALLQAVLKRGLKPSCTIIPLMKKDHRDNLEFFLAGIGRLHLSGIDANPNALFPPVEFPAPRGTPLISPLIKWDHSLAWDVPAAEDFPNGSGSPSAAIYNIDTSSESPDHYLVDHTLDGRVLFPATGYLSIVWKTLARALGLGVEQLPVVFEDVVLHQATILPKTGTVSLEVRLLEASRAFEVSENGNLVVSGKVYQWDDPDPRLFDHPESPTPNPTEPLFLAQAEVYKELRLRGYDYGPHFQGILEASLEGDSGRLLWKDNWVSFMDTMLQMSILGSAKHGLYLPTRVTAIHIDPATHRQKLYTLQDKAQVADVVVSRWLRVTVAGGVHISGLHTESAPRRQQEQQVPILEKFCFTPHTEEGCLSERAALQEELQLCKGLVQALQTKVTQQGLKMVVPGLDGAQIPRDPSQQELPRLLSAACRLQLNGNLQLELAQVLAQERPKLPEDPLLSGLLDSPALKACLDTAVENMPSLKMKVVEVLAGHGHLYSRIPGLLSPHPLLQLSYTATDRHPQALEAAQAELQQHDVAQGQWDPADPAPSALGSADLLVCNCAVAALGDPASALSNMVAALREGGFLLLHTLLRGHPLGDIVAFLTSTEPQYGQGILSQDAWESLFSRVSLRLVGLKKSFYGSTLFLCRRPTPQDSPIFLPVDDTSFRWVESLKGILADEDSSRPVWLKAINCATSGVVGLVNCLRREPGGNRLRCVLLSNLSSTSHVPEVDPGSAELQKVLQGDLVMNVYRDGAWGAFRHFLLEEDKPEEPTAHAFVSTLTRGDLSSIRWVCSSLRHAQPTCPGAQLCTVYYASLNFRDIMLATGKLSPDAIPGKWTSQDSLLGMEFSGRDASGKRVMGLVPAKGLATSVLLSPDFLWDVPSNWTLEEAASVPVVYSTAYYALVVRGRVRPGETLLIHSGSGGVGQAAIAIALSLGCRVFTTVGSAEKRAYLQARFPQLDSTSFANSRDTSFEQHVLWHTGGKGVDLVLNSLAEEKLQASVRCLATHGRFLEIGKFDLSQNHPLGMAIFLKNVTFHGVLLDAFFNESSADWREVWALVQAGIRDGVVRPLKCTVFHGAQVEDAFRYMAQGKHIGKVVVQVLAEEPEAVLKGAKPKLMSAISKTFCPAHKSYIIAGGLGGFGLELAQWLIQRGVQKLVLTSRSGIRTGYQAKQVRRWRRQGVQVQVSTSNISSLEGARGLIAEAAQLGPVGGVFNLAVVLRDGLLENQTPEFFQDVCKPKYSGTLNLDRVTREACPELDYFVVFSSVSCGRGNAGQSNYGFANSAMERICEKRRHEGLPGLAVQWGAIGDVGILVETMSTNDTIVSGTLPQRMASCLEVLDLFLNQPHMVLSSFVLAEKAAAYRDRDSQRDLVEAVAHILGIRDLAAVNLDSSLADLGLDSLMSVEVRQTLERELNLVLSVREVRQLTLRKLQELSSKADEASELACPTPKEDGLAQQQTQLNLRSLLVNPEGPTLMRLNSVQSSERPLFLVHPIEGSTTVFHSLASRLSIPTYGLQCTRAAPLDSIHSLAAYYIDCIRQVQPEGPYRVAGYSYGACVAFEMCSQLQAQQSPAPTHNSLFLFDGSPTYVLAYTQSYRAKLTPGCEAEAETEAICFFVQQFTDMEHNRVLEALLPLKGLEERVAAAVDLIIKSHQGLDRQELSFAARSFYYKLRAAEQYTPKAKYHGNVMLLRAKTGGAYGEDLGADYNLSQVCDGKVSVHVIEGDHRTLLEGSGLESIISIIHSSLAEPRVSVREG

Fatty acid synthase [6] = target: T1, Fatty acid synthase; experiment: inhibition of human FAS-TE enzyme activity – biochemical, kinetic fluorescence intensity, dose response (AID 624326); format: functional;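 further: rate of fluorescence rise from hydrolysis of a fluorogenic O-methyl fluorescein ester substrate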
[7] = target: T2, Methionyl-tRNA synthetase, putative (Trypanosoma brucei brucei, UniProt Q38C91); format: functional, Trypanosoma brucei brucei strain 927/4 GUTat10.1
T2 sequence (Q38C91 whole entry): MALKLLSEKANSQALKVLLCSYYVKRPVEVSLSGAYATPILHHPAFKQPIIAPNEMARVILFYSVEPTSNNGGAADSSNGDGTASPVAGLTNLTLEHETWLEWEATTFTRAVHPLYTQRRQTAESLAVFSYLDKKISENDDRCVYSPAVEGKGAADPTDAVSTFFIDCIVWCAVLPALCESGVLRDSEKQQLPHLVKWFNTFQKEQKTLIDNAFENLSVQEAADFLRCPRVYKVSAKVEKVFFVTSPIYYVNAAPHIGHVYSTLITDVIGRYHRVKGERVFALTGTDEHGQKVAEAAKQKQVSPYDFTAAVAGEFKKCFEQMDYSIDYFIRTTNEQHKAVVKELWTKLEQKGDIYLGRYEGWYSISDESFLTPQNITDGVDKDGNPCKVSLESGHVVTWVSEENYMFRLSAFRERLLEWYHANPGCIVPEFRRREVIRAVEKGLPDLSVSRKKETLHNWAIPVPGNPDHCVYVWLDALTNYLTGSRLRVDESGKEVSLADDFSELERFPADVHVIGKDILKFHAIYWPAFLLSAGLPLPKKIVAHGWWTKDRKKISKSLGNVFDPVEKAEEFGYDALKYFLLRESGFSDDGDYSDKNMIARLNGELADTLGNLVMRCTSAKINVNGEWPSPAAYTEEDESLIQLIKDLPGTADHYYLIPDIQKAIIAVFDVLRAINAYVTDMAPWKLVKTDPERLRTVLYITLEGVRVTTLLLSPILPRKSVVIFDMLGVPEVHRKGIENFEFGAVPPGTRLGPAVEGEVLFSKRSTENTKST

[8] = Counterscreen for inhibitors of Trypanosoma brucei methionyl tRNA synthetase (MetRS): Luminescence-based cell-based high throughput dose response assay to identify compounds that are cytotoxic to Jurkat human T lymphocyte cells.; format: functional
[9] = target: T2, Methionyl-tRNA synthetase, putative; format: functional, Trypanosoma brucei brucei strain 927/4 GUTat10.1; remark: listed apart in the source
[10] = anti-trypanosomal activity in BESM host cells – imaging, CA-I/72 strain, bovine embryo skeletal muscle, dry powder, dose response (AID 651885); format: functional, cell-based
[11] = target: Nuclear receptor subfamily 5 group A member 2 (Homo sapiens, UniProt O00482); format: functional, cell-based;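 further: HEK293T cells transfected with LRH-1 and a StAR promoter luciferase reporter; potency for inhibitors that lower LRH-1 driven reporter light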
Nuclear receptor subfamily 5 group A member 2, sequence (O00482 whole entry): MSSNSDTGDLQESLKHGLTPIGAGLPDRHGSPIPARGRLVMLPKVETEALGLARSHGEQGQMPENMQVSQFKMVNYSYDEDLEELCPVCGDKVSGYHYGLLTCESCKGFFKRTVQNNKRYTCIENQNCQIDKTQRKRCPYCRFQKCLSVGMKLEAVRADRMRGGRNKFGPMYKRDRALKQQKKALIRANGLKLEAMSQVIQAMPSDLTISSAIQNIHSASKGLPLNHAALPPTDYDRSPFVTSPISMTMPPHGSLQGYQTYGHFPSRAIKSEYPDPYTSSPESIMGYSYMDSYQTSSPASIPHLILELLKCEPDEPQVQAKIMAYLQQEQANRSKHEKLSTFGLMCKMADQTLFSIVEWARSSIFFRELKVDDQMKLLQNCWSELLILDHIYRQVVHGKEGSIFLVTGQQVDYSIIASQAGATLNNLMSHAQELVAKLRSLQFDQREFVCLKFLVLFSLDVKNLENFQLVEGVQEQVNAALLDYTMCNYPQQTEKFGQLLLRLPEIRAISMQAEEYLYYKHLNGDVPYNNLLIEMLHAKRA

Steroidogenic factor 1 = Steroidogenic factor 1 (Homo sapiens, UniProt Q13285); experiment: Counterscreen for inverse agonists of the liver receptor homolog-1 (LRH-1; NR5A2): Luminescence-based cell-based high throughput dose response assay to identify inverse agonists of the Steroidogenic Factor 1 Nuclear Receptor (SF1; NR5A1).; format: functional
Steroidogenic factor 1, sequence (Q13285 whole entry): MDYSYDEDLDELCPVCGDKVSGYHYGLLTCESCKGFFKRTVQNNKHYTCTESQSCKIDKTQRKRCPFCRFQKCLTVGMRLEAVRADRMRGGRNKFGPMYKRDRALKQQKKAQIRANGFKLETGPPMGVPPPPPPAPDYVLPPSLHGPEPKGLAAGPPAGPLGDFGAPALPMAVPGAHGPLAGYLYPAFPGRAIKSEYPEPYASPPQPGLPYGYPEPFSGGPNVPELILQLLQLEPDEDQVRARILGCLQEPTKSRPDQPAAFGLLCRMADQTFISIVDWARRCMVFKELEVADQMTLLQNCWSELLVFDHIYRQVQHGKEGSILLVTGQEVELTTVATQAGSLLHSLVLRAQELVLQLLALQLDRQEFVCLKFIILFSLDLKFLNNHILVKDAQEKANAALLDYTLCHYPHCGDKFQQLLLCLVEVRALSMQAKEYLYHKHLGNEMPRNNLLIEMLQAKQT

[12] = nonselective StAR promoter luciferase inhibitors – cell-based, luminescence, luciferase reporter, counter-screen for LRH-1 inverse agonist project, dose response (AID 651969); format: functional
[13] = blockers of bursicon-stimulated LGR2 cAMP reporter – cell-based, HEK293, CRE-luciferase reporter, cherry pick, set 2, dose response (AID 743343); format: functional;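 further: transfected cells were stimulated with diluted bursicon conditioned medium after compound addition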
[14] = blockade of melanocortin 4 receptor signaling – cell-based, plate reader, cherry pick, counter-screen for LGR2 antagonist project, dose response (AID 743444); format: functional;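 further: transfected HEK 293 cells stimulated with alpha-MSH peptide; potency of inhibitors of the alpha-MSH evoked signal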
[15] = target: 26S proteasome non-ATPase regulatory subunit 14 (Homo sapiens, UniProt O00487); experiment: inhibition of proteasome subunit RPN11 – biochemical, fluorescence polarization, uHTS hits, confirmation (AID 602368); format: functional
[16] = target: 72 kDa type IV collagenase (Homo sapiens, UniProt P08253); experiment: Dose Response validation of uHTS RPN11 inhibitor hits using a MMP-2 Fluorescence assay.; format: functional
72 kDa type IV collagenase, sequence (P08253 whole entry): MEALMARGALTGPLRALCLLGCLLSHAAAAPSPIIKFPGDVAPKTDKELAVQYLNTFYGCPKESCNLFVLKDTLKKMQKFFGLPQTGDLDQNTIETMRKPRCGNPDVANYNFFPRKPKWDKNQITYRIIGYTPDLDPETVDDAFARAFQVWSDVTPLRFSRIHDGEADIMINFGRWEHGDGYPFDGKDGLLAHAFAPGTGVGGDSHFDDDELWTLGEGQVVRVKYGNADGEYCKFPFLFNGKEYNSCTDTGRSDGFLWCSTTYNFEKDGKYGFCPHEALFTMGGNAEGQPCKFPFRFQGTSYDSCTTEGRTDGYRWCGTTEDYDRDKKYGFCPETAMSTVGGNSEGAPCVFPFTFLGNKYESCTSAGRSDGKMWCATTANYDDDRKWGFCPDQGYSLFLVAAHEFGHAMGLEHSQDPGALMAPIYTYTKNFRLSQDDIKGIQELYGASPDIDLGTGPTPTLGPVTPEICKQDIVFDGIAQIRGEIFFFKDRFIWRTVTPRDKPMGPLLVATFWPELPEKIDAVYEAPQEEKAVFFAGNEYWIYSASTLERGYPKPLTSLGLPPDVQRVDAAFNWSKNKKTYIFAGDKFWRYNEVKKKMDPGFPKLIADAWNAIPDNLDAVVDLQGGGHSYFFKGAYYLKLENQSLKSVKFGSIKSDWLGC

Prothrombin = Prothrombin (Bos taurus, UniProt P00735); experiment: thrombin protease inhibitors – biochemical, fluorescence polarization, uHTS hits, dose response (AID 602369); format: functional

Adenosylmethionine-8-amino-7-oxononanoate aminotransferase, sequence (P9WQ81 whole entry, the tested form may be a part): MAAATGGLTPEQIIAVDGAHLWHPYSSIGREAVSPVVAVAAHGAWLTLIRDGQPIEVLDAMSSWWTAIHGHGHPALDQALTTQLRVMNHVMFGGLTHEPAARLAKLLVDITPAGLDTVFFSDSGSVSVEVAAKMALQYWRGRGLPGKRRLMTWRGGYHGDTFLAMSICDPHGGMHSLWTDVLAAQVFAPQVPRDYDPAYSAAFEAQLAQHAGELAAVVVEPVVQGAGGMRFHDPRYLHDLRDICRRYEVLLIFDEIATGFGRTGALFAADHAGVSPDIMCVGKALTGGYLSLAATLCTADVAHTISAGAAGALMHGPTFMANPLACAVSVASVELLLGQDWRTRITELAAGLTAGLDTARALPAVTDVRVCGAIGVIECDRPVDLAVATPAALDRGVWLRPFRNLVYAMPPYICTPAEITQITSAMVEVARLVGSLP

Q: For `COc1ccc(C(=O)Nc2cccnc2)cc1OC`, which AC50 [1] is on record?
A: Its AC50 is 8.29 µM (active).

Q: For `CN(CC(=O)Nc1ccccc1Cl)C(=O)COC(=O)c1nc(Cl)c(Cl)c(Cl)c1Cl`, which IC50 [2] is on record?
A: Its IC50 is 8.62 µM (active).

Q: What about the EC50 [3] of the same molecule?
A: The EC50 was > 91.2 µM (inactive).

Q: What about the EC50 [4] of the same molecule?
A: The EC50 was > 91.2 µM (inactive).

Q: With `CCOC(=O)[C@]12Cc3ccc(C)cc3[C@H]1N(C1CCCCC1)C(=O)c1cc(OC)ccc12` as the molecule, how does the IC50 [2] read?
A: The IC50 was 2.32 µM (active).

Q: And the IC50 (Beta Lactamase)?
A: Its IC50 is 19.1 µM (inactive).

Q: What about the IC50 (Fatty acid synthase [5]) of the same molecule?
A: Its IC50 is 5.7 µM (active).

Q: What about the IC50 (Fatty acid synthase [6]) of the same molecule?
A: The IC50 was 5.14 µM (active).

Q: Which IC50 [7] does the source give for `C/C(CC(=O)Nc1cccc(Br)c1)=N\NC(=O)c1ccc(O)cc1O` here?
A: The IC50 was 1.23 µM (active).

Q: What about the IC50 [8] of the same molecule?
A: Its IC50 is 83.3 µM (inactive).

Q: What about the IC50 [9] of the same molecule?
A: The IC50 was 0.756 µM (active).

Q: For `COc1cc(-c2nnc(S)n2Cc2ccccc2)cc(OC)c1OC`, which AC50 [1] is on record?
A: Its AC50 is 2.51 µM (active).

Q: With `C[C@@H]1CN([C@@H](C)CO)C(=O)c2cccc(NC(=O)c3ccncc3)c2O[C@H]1CN(C)Cc1ccc(C(F)(F)F)cc1` as the molecule, how does the IC50 [10] read?
A: Its IC50 is 10 µM (inconclusive).

Q: For `COc1ccc(OCCNC(=O)C2(C)CCN2Cc2ccc(SC)cc2)cc1` (configuration not stated), which IC50 [11] is on record?
A: Its IC50 is 5.57 µM (active).

Q: And the IC50 (Steroidogenic factor 1)?
A: The IC50 was 3.51 µM (active).

Q: And the IC50 [12]?
A: The IC50 was 35.9 µM (inactive).

Q: For `O=C(NCCc1ccccc1)c1ccc2c(c1)OCO2`, which AC50 [13] is on record?
A: Its AC50 is 2.31 µM (active).

Q: What about the AC50 [14] of the same molecule?
A: Its AC50 is 2.88 µM (active).

Q: Which results are given for `Cc1cc2nc(CS)[nH]c2cc1C`?
A: IC50 [15]: 51.1 µM (active); IC50 [16]: 9.51 µM (active); IC50 (Prothrombin): > 100 µM (inactive)

Q: Which IC50 [10] does the source give for `CC(C)N(C)C(=O)c1cccc(NC(=O)c2ccncc2)c1OCCCN(C)C(=O)OC(C)(C)C` here?
A: The IC50 was 10.2 µM (inconclusive).
